According to patent US5079261A, “Use of lipoxin A4 and its derivatives as antagonists for slow-reacting substances of anaphylaxis” (Brigham and Women's Hospital, priority 1989, dated 1992):

Tests used:
[1] = system: guinea pig ileum or trachea; conditions: cited from earlier work
hamster cheek pouch = conditions: topical; cited from earlier work
[2] = Renal function in vivo in anesthetized rats (AP, Hct, RPF, GFR) during intrarenal arterial infusion; design: species or system male Munich-Wistar rats; conditions: for AP / GFR / Hct / RPF: LXA4 20-min infusion, n=3
Text: Statistical: ANOVA with Bonferroni modification for multiple pre-planned comparisons was used, within each group and between groups, to compare the changes in various whole kidney and microcirculatory indices which occurred from one period to another. In phosphoinositide generation studies, increases in [^3 H]-IP3 CPMs in agonist-treated cells were compared to vehicle-treated controls using upaired students t-test. Differences were considered significant at a p value ≤0.05. All values are reported as means ± SEM.
Inulin and para-aminohippurate (PAH) clearances Were used to measure GFR and effective RPF. A needle was placed at the take-off of the left renal artery through which a maintenance infusion of 0.9% NaCl at a rate of 0.05 ml/min was initiated. […] Two experimental groups
Group I (n=14). First period: Clearances were performed during vehicle infusion.
Group II (n=12). First period: Clearances were performed during vehicle infusion.

[3] = Group II, third period, LTD4 in the presence of LXA4
[4] = LTD4 14.0 μg/kg/min + LXA4, p<0.05 vs baseline
[5] = LTD4 20.0 μg/kg/min + LXA4, p<0.05 vs baseline

## CCCCC[C@H](O)/C=C/C=C\C=C\C=C\[C@@H](O)[C@@H](O)CCCC(=O)O [LXA4, (5S,6R,15S)-5,6,15-trihydroxy-7,9,13-trans-11-cis-eicosatetraenoic acid]
[1]
  Contraction of ileum or trachea: not guinea pig ileum or trachea
Hamster cheek pouch
  Arteriolar dilation: pronounced arteriolar dilation
  Venular diameters: does not change venular diameters
[2]; Group II, LXA4 infusion, period 2
  GFR and RPF change (in words): moderate increases
[2]; Group II, period 2, subgroup A
  AP: 121 ± 4 mmHg
  GFR: 1.20 ± 0.20 mL/min
  Hct: 43.7 ± 0.9 Vol./dl
  RPF: 4.50 ± 0.08 mL/min
[2]; Group II, period 2, subgroup B
  AP: 120 ± 0 mmHg
  GFR: 0.98 ± 0.06 mL/min
  Hct: 44.7 ± 1.2 Vol./dl
  RPF: 4.76 ± 0.83 mL/min
[2]; Group II, period 2, subgroup C
  AP: 127 ± 2 mmHg
  GFR: 1.30 ± 0.10 mL/min
  Hct: 45.2 ± 0.7 Vol./dl
  RPF: 4.87 ± 0.10 mL/min
[2]; Group II, period 2, subgroup D
  AP: 108 ± 3 mmHg
  GFR: 1.27 ± 0.04 mL/min
  Hct: 44.5 ± 0.3 Vol./dl
  RPF: 4.58 ± 0.20 mL/min
[2]; [3]
  Effect on LTD4-induced falls in RPF: without effect
  Effect on LTD4-provoked reduction in GFR: marked blunting
[2]; LTD4 0.5 μg/kg/min + LXA4
  Mean percent fall in GFR during LTD4 in the presence of LXA4: 9%
[2]; LTD4 0.5 μg/kg/min + LXA4, p<0.05 vs baseline
  Mean percent fall in RPF during LTD4 in the presence of LXA4: 20%
[2]; LTD4 7.0 μg/kg/min + LXA4
  Mean percent fall in GFR during LTD4 in the presence of LXA4: 11%
[2]; LTD4 7.0 μg/kg/min + LXA4, p<0.05 vs baseline
  Mean percent fall in RPF during LTD4 in the presence of LXA4: 37%
[2]; [4]
  Mean percent fall in GFR during LTD4 in the presence of LXA4: 42%
  Mean percent fall in RPF during LTD4 in the presence of LXA4: 51%
[2]; [5]
  Mean percent fall in GFR during LTD4 in the presence of LXA4: 50%
  Mean percent fall in RPF during LTD4 in the presence of LXA4: 68%
